For series [1], the system named is Rattus norvegicus. In words: Biodistribution in naive Wistar rat whole brain at 1 to 3 MBq, iv using [18F] labeled compound measured 2 mins post dose. Format: ADME, organism-based. Particulars: in vivo.
A further series concerns the target Translocator protein (Rattus norvegicus, UniProt P16257). In words: Displacement of [3H]PK11195 from TSPO in Wistar rat heart incubated for 15 mins. On the technique in general: Displacement assays read how much labelled ligand stays bound in the presence of the test substance.
A further series deals with Brain. In words: Stability in naive Wistar rat brain assessed as parent compound level at 1 to 3 MBq, iv using [18F] labeled compound measured 60 mins post dose. Particulars: in vivo, 1 h. It is filed as ADME, organism-based.
Series [2] relates to Rattus norvegicus. In words: Biodistribution in naive Wistar rat olfactory bulbs at 1 to 3 MBq, iv using [18F] labeled compound measured 30 mins post dose. Format: ADME, organism-based, Olfactory bulb. Particulars: in vivo, 0.5 h.
Series [3] deals with Striatum. In words: Ratio of biodistribution in striatum at 2 mins post dose to biodistribution in striatum post 30 mins in naive Wistar rat at 1 to 3 MBq, iv using [18F] labeled compound. Particulars: in vivo. It is filed as ADME, organism-based.
For series [4], the system named is Striatum. In words: Ratio of biodistribution in olfactory bulbs to striatum of in naive Wistar rat at 1 to 3 MBq, iv using [18F] labeled compound measured 30 mins post dose. It is filed as ADME, organism-based. Particulars: in vivo, 0.5 h.
A short description of series [5]: Lipophilicity, log D of the compound at pH 7.4. Conditions: buffer. Format: physicochemical.
The nature of series [6]: Lipophilicity, log P of the compound by HPLC method. Format: physicochemical.

pKi: −log10 of the molar value.

Data on 28 compounds can be found in ChEMBL document CHEMBL2069301, “Exploration of the structure-activity relationship of the diaryl anilide class of ligands for translocator protein--potential novel positron emitting tomography imaging agents” (Bioorg Med Chem Lett, 2012).

Translocator protein, sequence (P16257 whole entry, looked up): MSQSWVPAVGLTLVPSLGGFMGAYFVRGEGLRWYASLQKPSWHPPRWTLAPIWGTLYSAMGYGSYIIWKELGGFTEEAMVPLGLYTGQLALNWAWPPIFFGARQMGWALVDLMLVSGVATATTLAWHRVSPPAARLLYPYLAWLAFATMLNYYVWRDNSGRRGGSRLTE

Take `O=C(CF)N(Cc1cccc2c1OCCO2)c1ccccc1Oc1ccccc1`: the figures for the Drug uptake in the series with Rattus norvegicus [1] and in the series with Rattus norvegicus [2] were 0.72 % ID/g and 0.4 % ID/g, respectively. Further, the negative-log Ki (pKi) (usually the negative decadic logarithm of the Ki, by convention in mol/L) at Translocator protein was 8.94. Further, the Stability in the series with Brain was 82%. The Ratio in the series on Striatum [3] is on record as 3.88; in the series with Striatum [4] it was 2.5. Further, the logD – broadly, lipophilicity at a set pH, counting ionised and neutral species – in series [5] (read-out: logD) came out at 1.96.
With `CCC(C)N(C)C(=O)c1cc2ccccc2c(-c2ccccc2Cl)n1` (centres undefined) [PK-11195], the logD in series [5] (read-out: logD) came to 3.73.
Take `CC1(C)Cc2cccc(CN(C(=O)CF)c3ccccc3Oc3ccccc3)c2O1`: the Drug uptake is given as 0.58 % ID/g with Rattus norvegicus [1] and 0.23 % ID/g in the series with Rattus norvegicus [2]. The same compound showed a pKi at Translocator protein of 8.58. The Ratio amounted to 3.8 with Striatum [3] and 1.53 in the series with Striatum [4]. For the same compound, in series [5] (read-out: logD), the logD amounted to 2.6.
At Translocator protein, `CC(=O)N(Cc1cccn(CCF)c1=O)c1ccccc1Oc1ccccc1` showed a pKi of 6.98. Moreover, in series [5] (read-out: logD), the logD was determined as 2.2.
`COc1ccccc1CN(C(=O)CF)c1cnccc1Oc1ccccc1` gave a pKi on Translocator protein of 8.66. Also, the Stability in the series with Brain was 52%. Also, in series [6], the logP (usually a log measure of how a compound divides between an organic and an aqueous phase) was 2.72.
In the case of `O=C(CF)N(Cc1cccc2c1OCO2)c1ccccc1Oc1ccccc1`, the results for the Drug uptake in the series on Rattus norvegicus [1] and in the series with Rattus norvegicus [2] were 0.65 % ID/g and 0.37 % ID/g, respectively. Moreover, the pKi at Translocator protein was 8.69. For the same compound, in the series on Brain, the Stability turned out to be 92%. Moreover, the Ratio in the series on Striatum [3] is recorded as 4.77; with Striatum [4] it was 2.85. In addition, the logD in series [5] (read-out: logD) was found to be 2.8.
For `COc1ccc(OC)c(CN(C(=O)CF)c2cccc3cc(C)oc23)c1`, the Drug uptake with Rattus norvegicus [1] was determined as 0.68 % ID/g; with Rattus norvegicus [2], 0.35 % ID/g. This compound also gave a pKi at Translocator protein of 8.20. Besides, the Stability in the series with Brain was 80%. Further, the Ratio in the series on Striatum [3] amounted to 6.3; in the series with Striatum [4], 3.5.
Take `COc1ccc(OC)c(CN(C(=O)CF)c2cc(F)ccc2OC(C)C)c1`: at Translocator protein, the pKi was 8.01.
Regarding `O=C(CF)N(Cc1cccc2c1OCC2)c1ccccc1Oc1ccccc1`, the Drug uptake with Rattus norvegicus [1] worked out at 0.81 % ID/g; in the series on Rattus norvegicus [2], 0.68 % ID/g. This compound showed a pKi on Translocator protein of 9.51. For the same compound, the Stability in the series with Brain was 91%. Besides, the Ratio in the series on Striatum [3] and with Striatum [4] was 2.52 throughout. Moreover, in series [5] (read-out: logD), the logD amounted to 2.68.
As for `COc1ccc(OC)c(CN(C(=O)CF)c2ccccc2OC2CCCC2)c1`, the Drug uptake is recorded as 0.53 % ID/g with Rattus norvegicus [1] and 0.23 % ID/g with Rattus norvegicus [2]. Further, the pKi at Translocator protein was 9.34. In addition, the Stability in the series with Brain amounted to 45%. Further, the Ratio with Striatum [3] came to 5.56; with Striatum [4] it was 2.56. In addition, the logD in series [5] (read-out: logD) came to 3.8.
For `COc1ccc(OC)c(CN(C(=O)CF)c2cc(F)ccc2Oc2ccccc2)c1`, the figures for the Drug uptake in the series with Rattus norvegicus [1] and in the series on Rattus norvegicus [2] were 0.73 % ID/g and 0.7 % ID/g, respectively. In addition, on Translocator protein, the pKi was 10.30. The results for the Ratio in the series on Striatum [3] and in the series on Striatum [4] were 1.71 and 2.06, respectively. Also, the logD in series [5] (read-out: logD) came out at 2.06.
For `COc1ccc(OC)c(CN(C(=O)CF)c2ccccc2S(=O)(=O)c2ccccc2)c1`, the pKi on Translocator protein is 5.46.
As for `CCC(C)N([11CH3])C(=O)c1cc2ccccc2c(-c2ccccc2Cl)n1` (centres undefined), the Drug uptake in the series on Rattus norvegicus [1] is reported as 0.28 % ID/g.
Consider `COc1ccccc1CN(C(=O)CF)c1cccnc1Oc1ccccc1`, for which the Drug uptake in the series on Rattus norvegicus [1] is 0.55 % ID/g; in the series on Rattus norvegicus [2], 0.15 % ID/g. This compound had a pKi at Translocator protein of 6.90. Further, the Ratio with Striatum [3] was 4.82; in the series on Striatum [4], 1.36. In series [5] (read-out: logD), the logD turned out to be 1.51.
As to `COc1ccccc1CN(C(=O)CF)c1ccccc1OC1CCCC1`, the figures for the Drug uptake with Rattus norvegicus [1] and with Rattus norvegicus [2] were 0.77 % ID/g and 0.42 % ID/g, respectively. Also, the pKi at Translocator protein is 8.18. Further, the Stability in the series with Brain turned out to be 62%. Also, the Ratio in the series on Striatum [3] was 5.46; in the series on Striatum [4], 3.23. Besides, in series [5] (read-out: logD), the pH-dependent lipophilicity (logD) was determined as 2.35.
Turning to `COc1ccc(OC)c(CN(C(=O)CF)c2ccccc2Sc2ccccc2)c1`, the Drug uptake stood at 0.61 % ID/g in the series on Rattus norvegicus [1] and 0.17 % ID/g with Rattus norvegicus [2]. The compound also had a pKi on Translocator protein of 8.35. Further, the Ratio is 6.22 in the series with Striatum [3] and 1.88 in the series on Striatum [4].
Compound `COc1ccc(OC)c(CN(C(C)=O)c2cc(F)ccc2Oc2ccccc2)c1` had a pKi at Translocator protein of 9.37.
`COc1ccc(OC)c(CN(C(=O)C[18F])c2ccccc2Oc2ccccc2)c1` showed a Drug uptake in the series on Rattus norvegicus [1] of 0.74 % ID/g. Moreover, in the series on Brain, the Stability turned out to be 91%.
The compound `COc1ccc(OC)c(CN(C(=O)CF)c2ccccc2OC(C)C)c1` gave a pKi on Translocator protein of 8.42. In addition, the logD in series [5] (read-out: logD) is 2.62.
Take `O=C(CF)N(Cc1cccs1)c1ccccc1Oc1ccccc1`: the pKi on Translocator protein is 6.79. Besides, the logD in series [5] (read-out: logD) came to 1.98.
On to `COc1ccc(OC)c(CN(C(=O)CF)c2ccccc2Oc2ccccc2)c1`, for which the logD in series [5] turned out to be 2.36.
Turning to `COc1ccc(OC)c(CN(C(=O)CF)c2cncnc2Oc2ccccc2)c1`, on Translocator protein, the pKi is 7.20. Moreover, in series [6], the logP was 2.79.
In the case of `COc1ncccc1CN(C(=O)CF)c1ccccc1Oc1ccccc1`, the Drug uptake in the series with Rattus norvegicus [1] was 0.66 % ID/g; in the series on Rattus norvegicus [2], 0.33 % ID/g. Further, the Ratio in the series with Striatum [3] came to 3.92; in the series with Striatum [4], 2.54. Also, in series [5] (read-out: logD), the logD stood at 2.38.
For `COc1ccc(OCCF)c(CN(C(C)=O)c2cccnc2Oc2ccccc2)c1`, the Drug uptake with Rattus norvegicus [1] was 0.25 % ID/g; with Rattus norvegicus [2], 0.26 % ID/g. In addition, at Translocator protein, the pKi was 8.14. The Ratio in the series on Striatum [3] is 4.4; in the series on Striatum [4], 5.2. Moreover, the logD in series [5] (read-out: logD) is 1.58.
For the compound `CC(=O)N(Cc1ccccc1OCCF)c1cccnc1Oc1ccccc1`, the results for the Drug uptake in the series on Rattus norvegicus [1] and in the series with Rattus norvegicus [2] were 0.45 % ID/g and 0.4 % ID/g, respectively. Besides, the results for the Ratio with Striatum [3] and in the series on Striatum [4] were 2.85 and 3.08, respectively. In series [5] (read-out: logD), the logD worked out at 1.69.
At Translocator protein, `Cc1ccc(CN(C(=O)CF)c2ccccc2Oc2ccccc2)o1` showed a pKi of 7.14. Besides, the log distribution coefficient (logD) in series [5] (read-out: logD) turned out to be 2.19.
With `CC(=O)N(Cc1cccnc1OCCF)c1ccccc1Oc1ccccc1`, the logD in series [5] (read-out: logD) was 2.6.
For `COc1ncccc1CN(C(=O)CF)c1cc(F)ccc1Oc1ccccc1`, the Drug uptake in the series with Rattus norvegicus [1] was determined as 0.84 % ID/g; in the series on Rattus norvegicus [2] it was 0.5 % ID/g. This compound also had a pKi on Translocator protein of 8.45. Also, in the series with Brain, the Stability turned out to be 72%. Moreover, the Ratio is on record as 4.39 in the series on Striatum [3] and 2.78 in the series with Striatum [4]. Also, the logD in series [5] (read-out: logD) was found to be 2.3.
